Source: patent publication US8691980B2 (National Taipei University of Technology, priority 2011, dated 2014)

Legend:
[1] = Latent fluorophore kept in SHL alone, NADH alone or Tris-HCl buffer (background fluorescence / stability); assay type: physicochemical; settings: 20 μM
Description: (§1) ^1H NMR and ^13C NMR spectrums were obtained by Bruker AMX-500 spectrophotometer wherein chemical shift values were expressed in ppm relative to tetramethylsilane (δ unit); fluorescence intensity was measured by using a fluorescence-grade quartz cuvette and a spectrofluorometer, i.e. Horiba Jobin Yvon Fluoromax-4. The other chemicals are purchased from Acros, Aldrich, TCI or Sigma Chemical corporations and directly used without purification. […] Chem. Soc. Jp. 1985, 58, 731; the entire contents thereof are incorporated herein by reference. SHL is obtained from GDS Technology Inc. (USA). D-3-hydroxybutyric acid dehydrogenase is purchased from TOYOBO (Product Code: HBD-301). Cholesterol dehydrogenase is purchased from Genzyme Corp. All measurements were performed in 50 mM Tris-HCl (TRIZMA Base, Tris, pH8). The latent fluorophore is synthesized in DMSO and should be added to a Tris-HCl buffer before use to make the concentration of DMSO not exceed 0.1% (v/v).
(§2) The fluorescence profile of Compound C was analyzed in the presence of SHL and NADH in an aerobic environment. […] However, in case that Compound C was kept in a solution containing both 1 unit of SHL and 1 mM NADH at 37 °C, the fluorescence intensity of Compound B increases 57 times in 90 minutes, as shown in FIG. 1 (dotted line representing the baseline).

[2] = system: SHL and 3-hydroxybutyric acid dehydrogenase; assay: Two-enzyme system: SHL and 3-hydroxybutyric acid dehydrogenase; assay type: biochemical; settings: Compound C 10 μM; substrate 3-hydroxybutyric acid
Description: as §1, with “(v/v). […]” for “(v/v).”
(§3) The measurement of fluorescence was performed at an excitation wavelength λex of 500 nm and an emission wavelength λem of 595 nm. […] The measured fluorescence intensity after subtraction of baseline (concentration of the biochemical molecule to be tested is zero) intensity therefrom was plotted versus the concentration of the biochemical molecule to be tested.

[3] = system: SHL and cholesterol dehydrogenase; assay: Two-enzyme system: SHL and cholesterol dehydrogenase; assay type: biochemical; settings: Compound C 10 μM
Description: as §1, with “(v/v). […]” for “(v/v).”
as §3

[4] = molecular target: T1, Salicylate hydroxylase (SHL) (Pseudomonas putida, UniProt P23262); assay: Fluorescence profile of the latent fluorophore in the presence of SHL and NADH, aerobic; assay type: biochemical
T1 construct: purchased GDS Technology Inc. (USA)
T1 sequence (P23262 1-434): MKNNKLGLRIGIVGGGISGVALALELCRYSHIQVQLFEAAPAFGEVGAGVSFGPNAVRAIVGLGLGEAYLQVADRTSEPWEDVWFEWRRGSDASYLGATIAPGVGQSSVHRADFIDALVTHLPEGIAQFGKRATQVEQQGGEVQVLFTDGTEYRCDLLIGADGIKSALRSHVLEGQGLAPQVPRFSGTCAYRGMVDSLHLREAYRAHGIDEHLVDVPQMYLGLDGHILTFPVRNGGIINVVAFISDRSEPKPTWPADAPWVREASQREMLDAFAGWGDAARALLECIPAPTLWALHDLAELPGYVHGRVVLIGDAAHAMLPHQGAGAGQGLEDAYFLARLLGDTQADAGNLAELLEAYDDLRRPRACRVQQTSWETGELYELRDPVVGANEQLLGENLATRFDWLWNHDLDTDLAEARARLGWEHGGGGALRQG
Description: as §1, §2

[5] = molecular target: T1, Salicylate hydroxylase (SHL); assay: Effect of salicylic acid on the fluorescence intensity (SHL, Compound C, NADH); assay type: biochemical; settings: salicylic acid added to SHL, Compound C and NADH, aerobic; fluorescence decreased with increasing concentration
Description: as §1

[6] = cited from earlier work

| Structure (SMILES) | fluorescence intensity, kept in solution of NADH alone ([1]; kept even for several months) | fluorescence intensity, kept in solution of SHL alone ([1]; kept even for several months) | fluorescence intensity, kept in Tris-HCl buffer solution ([1]; pH 8, kept even for several months) | fluorescence intensity after addition of the substrate [2] | fluorescence intensity after addition of the substrate [3] | time until fluorescence could be detected ([4]; 1 unit SHL and 1 mM NADH added to Tris-HCl buffer containing Compound C) | increase of fluorescence intensity ([4]; Compound C in solution with 1 unit SHL and 1 mM NADH, 37 °C, in 90 minutes) [times] | fluorescence intensity, only SHL added ([4]; only SHL added to Tris-HCl buffer containing Compound C, after 10 minutes) | conversion of Compound C to a fluorogenic compound [5] | blood level that may be fatal [6] |
| --- | --- | --- | --- | --- | --- | --- | --- | --- | --- | --- |
| N#Cc1c(-c2nc3ccccc3s2)c(=O)oc2cc(OCc3ccc(C(=O)O)c(O)c3)ccc12 [Compound C] | near the baseline | near the baseline | near the baseline | significantly increased | significantly increased | within several seconds | 57 | near the baseline |  |  |
| O=C(O)c1ccccc1O [salicylic acid] |  |  |  |  |  |  |  |  | inhibited | above 4.3 mM |
